Results: patent publication US20040197865A1, “Gene expression systems and recombinant cell lines” (3M Innovative Properties Company, priority 2002, published 2004)

Molecular target: T1, human TLR6 (Homo sapiens, UniProt Q9Y2C9)
T1 construct: expressed in transfected cells; host or cells: Namalwa cells (ATCC CRL-1432), co-transfected with pIFN-α1-luc and pCI-TLR6, G418-selected
Assay: Luciferase induction off the IFN-α1 promoter in pIFN-α1-luc/pCI-TLR6 co-transfected Namalwa cells
Assay type: cell-based
Conditions: IRM compound 10 μM, 18 hours, fold increase compared to DMSO negative control, representative experiment
From the text: The vector pIFN-α1-luc was constructed by inserting BglII sites at both ends of the human IFN-α1 promoter (SEQ ID NO:21). The BglII sites were inserted into the IFN-α1 promoter and the sequence was amplified using the primer pair of SEQ ID NO:22 and SEQ ID NO:23. The amplified IFN-α1 promoter was cloned into the pGL3-Enhancing vector (Promega Corp., Madison, Wis.) at its BglII site.
The vector pCI-TLR6 was constructed by inserting SEQ ID NO:11 (GenBank Accession No. NM 006068), which includes the human TLR6 coding sequence, into the pCI-neo mammalian expression vector (Promega Corp.) at the vector's NheI and MluI restriction sites.
Burkitt's Lymphoma lymphoblastoid Namalwa cells (ATCC Accession No. CRL-1432) were grown by incubation in culture medium overnight. Cells were harvested by centrifugation in a tabletop centrifuge (1200 RPM for 5 minutes), and then resuspended in phosphate buffered sucrose to a concentration of 1.3×10^7 cells per milliliter.
For each transfection, a 750 μL aliquot of the cell suspension was placed in an electroporation cuvette with 4 mm gaps. 10 μg of the pIFN-α1-luc vector and 10 μg of the pCI-TLR6 vector were added to the electroporation cuvette. The cell and vector mixtures were incubated at room temperature for 5 minutes. The cells were electroporated using a BioRad Gene Pulser (BioRad Laboratories, Hercules, Calif.) set to at 500 μF capacitance and […], then incubated at room temperature for 5 minutes.
The electroporated cells were suspended in 10 mLs of culture medium and incubated overnight. Dead cells and debris were removed after 24 hours using a MACS Dead Cell Removal kit (Miltenyi Biotec, Auburn, Calif.). Cells were resuspended in 10 mLs of culture medium and incubated for an additional 24 hours.
Transfected cells were selected by adding G418 (Promega Corp., Madison, Wis.) to a final concentration of 1 mg/mL and incubating the cells for seven days.
The selected transfected cells were counted and resuspended to a concentration of 1×10^6 cell per mL in culture medium. 100 μl aliquots of cells were placed in the wells of a white-walled, white-bottomed 96-well plate (Corning, Inc. Corning, N.Y.). 1.0 μL of an IRM compound from Table 1 (prepared at 1 mM in 100% DMSO) was added to some cell aliquots so that the final concentration of IRM compound was 10 μM. As a positive control, some cell aliquots were incubated with Sendai virus instead of IRM compound. As a negative control, some cell aliquots were incubated with DMSO without IRM compound. In all cases, the cells were incubated for 18 hours.
The plates were equilibrated to room temperature before 1 volume of reconstituted LucLight Plus (Packard Instruments, Meriden, Conn.) was added to each aliquot of cells. Each well of the plate was read on an LJL Analyst (LJL Biosystems, Inc., Sunnyvale, Calif.) set with a 5 minute dark adapt. The data are expressed as the fold increase in luciferase induction off of the IFN-α1 promoter in cell aliquots incubated with the indicated stimulant compared to the negative control in which the cell aliquots were incubated with only DMSO.

T1 sequence (Q9Y2C9 32-796): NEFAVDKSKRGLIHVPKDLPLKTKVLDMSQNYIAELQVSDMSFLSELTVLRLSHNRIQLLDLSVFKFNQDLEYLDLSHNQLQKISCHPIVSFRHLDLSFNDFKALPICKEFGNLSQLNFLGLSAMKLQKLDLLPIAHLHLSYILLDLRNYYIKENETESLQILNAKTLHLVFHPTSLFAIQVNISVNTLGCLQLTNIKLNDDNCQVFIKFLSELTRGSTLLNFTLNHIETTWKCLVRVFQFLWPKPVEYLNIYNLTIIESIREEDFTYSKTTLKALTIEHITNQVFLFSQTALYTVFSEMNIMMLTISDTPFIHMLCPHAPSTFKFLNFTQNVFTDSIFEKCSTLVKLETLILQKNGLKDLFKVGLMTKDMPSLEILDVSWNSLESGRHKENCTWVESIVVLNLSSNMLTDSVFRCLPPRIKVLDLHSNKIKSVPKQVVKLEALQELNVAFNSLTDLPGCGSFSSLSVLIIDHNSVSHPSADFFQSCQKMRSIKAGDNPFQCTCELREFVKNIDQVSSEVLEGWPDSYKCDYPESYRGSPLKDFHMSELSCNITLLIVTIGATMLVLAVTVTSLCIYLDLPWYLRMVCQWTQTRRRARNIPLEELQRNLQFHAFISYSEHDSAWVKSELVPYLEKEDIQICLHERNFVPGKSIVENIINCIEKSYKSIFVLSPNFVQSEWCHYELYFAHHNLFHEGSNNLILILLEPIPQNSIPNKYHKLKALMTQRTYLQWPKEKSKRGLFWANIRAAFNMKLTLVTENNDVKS
T1 sequence (O60603 19-784 partner limits assumed): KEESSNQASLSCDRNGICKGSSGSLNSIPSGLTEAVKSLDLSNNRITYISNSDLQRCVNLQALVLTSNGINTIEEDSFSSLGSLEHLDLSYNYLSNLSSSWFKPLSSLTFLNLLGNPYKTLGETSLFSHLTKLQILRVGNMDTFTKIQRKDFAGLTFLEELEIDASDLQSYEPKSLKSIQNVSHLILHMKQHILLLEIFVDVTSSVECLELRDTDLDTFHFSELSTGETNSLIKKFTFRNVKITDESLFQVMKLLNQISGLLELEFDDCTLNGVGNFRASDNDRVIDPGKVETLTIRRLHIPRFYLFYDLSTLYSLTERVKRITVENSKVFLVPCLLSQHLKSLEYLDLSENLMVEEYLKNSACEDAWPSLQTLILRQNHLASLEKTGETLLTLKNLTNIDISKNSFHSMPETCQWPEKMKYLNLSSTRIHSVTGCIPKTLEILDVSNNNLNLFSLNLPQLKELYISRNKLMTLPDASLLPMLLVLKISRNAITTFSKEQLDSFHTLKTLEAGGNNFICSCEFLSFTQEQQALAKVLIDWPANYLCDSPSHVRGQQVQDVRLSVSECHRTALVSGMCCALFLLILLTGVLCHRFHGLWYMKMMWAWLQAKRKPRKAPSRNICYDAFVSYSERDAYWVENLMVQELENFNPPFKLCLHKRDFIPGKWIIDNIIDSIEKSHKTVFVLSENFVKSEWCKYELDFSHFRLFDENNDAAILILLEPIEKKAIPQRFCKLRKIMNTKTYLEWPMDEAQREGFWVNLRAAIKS

| SMILES | Fold Increase in Luciferase Induction |
| --- | --- |
| CCOCc1nc2c(N)nc3c(c2n1CC(C)(C)O)CCCC3 [IRM1, 4-amino-2-ethoxymethyl-α,α-dimethyl-6,7,8,9-tetrahydro-1H-imidazo[4,5-c]quinoline-1-ethanol] | 3.6 |
| Cc1nc2c(N)nc3ccccc3c2n1CC(C)(C)O [IRM2, 4-amino-α,α,2-trimethyl-1H-imidazo[4,5-c]quinoline-1-ethanol] | 2.7 |
| Nc1nc2ccccc2c2c1ncn2CCOCCCc1cccnc1 [IRM4, 1-{2-[3-(3-pyridyl)propoxy]ethyl}-1H-imidazo[4,5-c]quinolin-4-amine] | 4.0 |
| CCCCc1nc2c(N)nc3c(c2n1CC(C)C)NCCC3 [IRM6, 2-butyl-6,7,8,9-tetrahydro-1-(2-methylpropyl)-1H-imidazo[4,5-c][1,5]naphthyridin-4-amine] | 2.9 |

Now from value to compound:

| Fold Increase in Luciferase Induction | SMILES |
| --- | --- |
| 2.6 | CCCCc1nc2c(N)nc3ccccc3c2n1CCCCNS(C)(=O)=O [IRM3, N-[4-(4-amino-2-butyl-1H-imidazo[4,5-c]quinolin-1-yl)butyl]methanesulfonamide] |
| 3.2 | CCCCc1nc2c(N)nc3cccnc3c2n1CC(C)C [IRM5, 2-butyl-1-(2-methylpropyl)-1H-imidazo[4,5-c][1,5]naphthyridin-4-amine] |
| 3.2 | COCCc1nc2c(N)nc3ccccc3c2n1CCCCNC(=O)c1ccc(-n2cccc2)nc1 [IRM7, N^3-{4-[4-amino-2-(2-methoxyethyl)-1H-imidazo[4,5-c]quinolin-1-yl]butyl}-6-(1H-1-pyrrolyl)nicotinamide] |
| 2.3 | CCc1nc2c(N)nc3ccccc3c2n1CCCCCS(C)(=O)=O [IRM8, 2-ethyl-1-[5-(methylsulfonyl)pentyl]-1H-imidazo[4,5-c]quinolin-4-amine] |
